Measured values: patent US20220411419A1, “SMALL MOLECULE MODULATORS OF MHC-I” (RetroVirox, Inc., priority 2018, published 2022)

Experiments:
[1] = in vitro; conditions: human, uninfected SupT1 cells
[2] = tested on: downmodulation of MHC-I molecules expressed on the surface of HIV infected SupT1 cells; assay: cells; conditions: for EC50: Human immunodeficiency virus 1, SUP-T1, read-out: EC50 for inhibition of MHC-I downmodulation utilizing the R1 parameter; for activity at 100 µM: Human immunodeficiency virus 1, SUP-T1, read-out: R1 @ 100 μM (R1 value for MHC-I downmodulation as % of the vehicle control)

**Q.** Which results are given for `CC1(C)Cc2cccc(OCC(=O)Nc3nc4c(Br)cccc4s3)c2O1` [Compound 1, N-(4-bromobenzo[d]thiazol-2-yl)-2-((2,2-dimethyl-2,3-dihydrobenzofuran-7-yl)oxy)acetamide]?
**A.** CC50 at 48 h [1]: > 90 µM; EC50 [2]: 0.12 µM

**Q.** For `Cc1ccc(NC(=O)COc2cccc3c2OC(C)(C)C3)nn1` [Compound 2, 2-((2,2-Dimethyl-2,3-dihydrobenzofuran-7-yl)oxy)-N-(6-methylpyridazin-3-yl)acetamide], which CC50 at 48 h [1] is on record?
**A.** > 90 µM

**Q.** And the EC50 [2]?
**A.** 2.1 µM

**Q.** With `CC1(C)Cc2cccc(OCC(=O)Nc3nc4c(s3)CCCCC4)c2O1` [Compound 3, 2-((2,2-Dimethyl-2,3-dihydrobenzofuran-7-yl)oxy)-N-(5,6,7,8-tetrahydro-4H-cyclohepta[d]thiazol-2-yl)acetamide] as the compound, how does the CC50 at 48 h [1] read?
**A.** > 100 µM

**Q.** What about the EC50 [2] of the same compound?
**A.** 0.2 µM

**Q.** Which results are given for `CC1(C)Cc2cccc(OCC(=O)Nc3nc4c(F)c(F)c(F)cc4s3)c2O1` [Compound 4, 2-((2,2-Dimethyl-2,3-dihydrobenzofuran-7-yl)oxy)-N-(4,5,6-trifluorobenzo [d]thiazol-2-yl)acetamide]?
**A.** CC50 at 48 h [1]: > 100 µM; EC50 [2]: 0.068 µM

**Q.** What does the source list for `CC1(C)Cc2cccc(OCC(=O)Nc3nc(C4CC4)cs3)c2O1` [Compound 5, N-(4-Cyclopropylthiazol-2-yl)-2-((2,2-dimethyl-2,3-dihydrobenzofuran-7-yl)oxy)acetamide]?
**A.** CC50 at 48 h [1]: > 100 µM; EC50 [2]: 0.55 µM

**Q.** Which CC50 at 48 h [1] does the source give for `CC1(C)Cc2cccc(OCC(=O)Nc3nc4c(F)c(F)ccc4s3)c2O1` [Compound 6, N-(4,5-Difluorobenzo[d]thiazol-2-yl)-2-((2,2-dimethyl-2,3-dihydrobenzofuran-7-yl)oxy)acetamide] here?
**A.** 36 µM

**Q.** What about the EC50 [2] of the same compound?
**A.** 6.3 µM

**Q.** Which CC50 [1] does the source give for `CC1(C)Cc2cccc(OCC(=O)Nc3ccccn3)c2O1` [Compound 7, 2-((2,2-Dimethyl-2,3-dihydrobenzofuran-7-yl)oxy)-N-(pyridin-2-yl) acetamide] here?
**A.** > 100 µM

**Q.** And the CC50 at 48 h [1]?
**A.** > 100 µM

**Q.** What about the EC50 [2] of the same compound?
**A.** > 25 µM

**Q.** And the activity at 100 µM [2]?
**A.** 34%

**Q.** Which CC50 at 48 h [1] does the source give for `Cc1cccc(NC(=O)COc2cccc3c2OC(C)(C)C3)n1` [Compound 8, 2-((2,2-Dimethyl-2,3-dihydrobenzofuran-7-yl)oxy)-N-(6-methylpyridin-2-yl) acetamide] here?
**A.** > 100 µM

**Q.** And the EC50 [2]?
**A.** 23 µM

**Q.** Which CC50 at 48 h [1] does the source give for `Cc1cnc(NC(=O)COc2cccc3c2OC(C)(C)C3)cn1` [Compound 9, 2-((2,2-Dimethyl-2,3-dihydrobenzofuran-7-yl)oxy)-N-(5-methylpyrazin-2-yl)acetamide] here?
**A.** > 125 µM

**Q.** What about the EC50 [2] of the same compound?
**A.** 0.5 µM

**Q.** Which CC50 [1] does the source give for `CC1(C)Cc2cccc(OCC(=O)Nc3cncc4ccccc34)c2O1` [Compound 10, 2-((2,2-Dimethyl-2,3-dihydrobenzofuran-7-yl)oxy)-N-(isoquinolin-4-yl) acetamide] here?
**A.** > 100 µM

**Q.** And the CC50 at 48 h [1]?
**A.** > 100 µM

**Q.** And the EC50 [2]?
**A.** > 25 µM

**Q.** What about the activity at 100 µM [2] of the same compound?
**A.** 46%

**Q.** With `Cc1ccc(NC(=O)COc2cccc3c2OC(C)(C)C3)cn1` [Compound 11, 2-((2,2-Dimethyl-2,3-dihydrobenzofuran-7-yl)oxy)-N-(6-methylpyridin-3-yl) acetamide] as the compound, how does the CC50 [1] read?
**A.** > 100 µM

**Q.** And the CC50 at 48 h [1]?
**A.** > 100 µM

**Q.** And the EC50 [2]?
**A.** > 25 µM

**Q.** And the activity at 100 µM [2]?
**A.** 48%

**Q.** With `CC1(C)Cc2cccc(OCC(=O)Nc3ccc(C(F)(F)F)nc3)c2O1` [Compound 12, 2-((2,2-Dimethyl-2,3-dihydrobenzofuran-7-yl)oxy)-N-(6-(trifluoromethyl)pyridin-3-yl)acetamide] as the compound, how does the CC50 [1] read?
**A.** > 100 µM

**Q.** What about the CC50 at 48 h [1] of the same compound?
**A.** > 100 µM

**Q.** What about the EC50 [2] of the same compound?
**A.** > 25 µM

**Q.** What about the activity at 100 µM [2] of the same compound?
**A.** 51%

**Q.** Which results are given for `CC1(C)Cc2cccc(OCC(=O)Nc3cccc4nccnc34)c2O1` [Compound 13, 2-((2,2-Dimethyl-2,3-dihydrobenzofuran-7-yl)oxy)-N-(quinoxalin-5-yl) acetamide]?
**A.** CC50 [1]: > 100 µM; CC50 at 48 h [1]: > 100 µM; EC50 [2]: > 25 µM; activity at 100 µM [2]: 63%

**Q.** What does the source list for `CC1(C)Cc2cccc(OCC(=O)Nc3cccc4cnccc34)c2O1` [Compound 14, 2-((2,2-Dimethyl-2,3-dihydrobenzofuran-7-yl)oxy)-N-(isoquinolin-5-yl) acetamide]?
**A.** CC50 [1]: > 100 µM; CC50 at 48 h [1]: > 100 µM; EC50 [2]: > 25 µM; activity at 100 µM [2]: 18%

**Q.** For `CC1(C)Cc2cccc(OCC(=O)Nc3ncnc4ccccc34)c2O1` [Compound 15, 2-((2,2-Dimethyl-2,3-dihydrobenzofuran-7-yl)oxy)-N-(quinazolin-4-yl) acetamide], which CC50 [1] is on record?
**A.** > 100 µM

**Q.** And the CC50 at 48 h [1]?
**A.** > 100 µM

**Q.** And the EC50 [2]?
**A.** > 25 µM

**Q.** And the activity at 100 µM [2]?
**A.** 14%

**Q.** For `CC1(C)Cc2cccc(OCC(=O)Nc3ccc4ccccc4n3)c2O1` [Compound 16, 2-((2,2-Dimethyl-2,3-dihydrobenzofuran-7-yl)oxy)-N-(quinolin-2-yl) acetamide], which CC50 at 48 h [1] is on record?
**A.** > 90 µM

**Q.** And the EC50 [2]?
**A.** 10 µM

**Q.** Which results are given for `CC1(C)Cc2cccc(OCC(=O)Nc3cc4ccccc4cn3)c2O1` [Compound 17, 2-((2,2-Dimethyl-2,3-dihydrobenzofuran-7-yl)oxy)-N-(isoquinolin-3-yl) acetamide]?
**A.** CC50 at 48 h [1]: > 125 µM; EC50 [2]: 22 µM

**Q.** With `Cc1cc(NC(=O)COc2cccc3c2OC(C)(C)C3)ncc1Cl` [Compound 18, N-(5-Chloro-4-methylpyridin-2-yl)-2-((2,2-dimethyl-2,3-dihydrobenzofuran-7-yl)oxy)acetamide] as the compound, how does the CC50 at 48 h [1] read?
**A.** > 125 µM

**Q.** And the EC50 [2]?
**A.** 18 µM

**Q.** Which CC50 [1] does the source give for `Cc1nc(NC(=O)C(C)(C)Oc2cccc3c2OC(C)(C)C3)sc1C` [Compound 19, 2-((2,2-Dimethyl-2,3-dihydrobenzofuran-7-yl)oxy)-N-(4,5-dimethylthiazol-2-yl)-2-methylpropanamide] here?
**A.** > 90 µM

**Q.** And the CC50 at 48 h [1]?
**A.** > 90 µM

**Q.** And the EC50 [2]?
**A.** > 30 µM

**Q.** And the activity at 100 µM [2]?
**A.** 20%

**Q.** For `CC1(C)Cc2cccc(OC(C)(C)C(=O)Nc3nc4ccccc4s3)c2O1` [Compound 20, N-(Benzo[d]thiazol-2-yl)-2-((2,2-dimethyl-2,3-dihydrobenzofuran-7-yl)oxy)-2-methylpropanamide], which CC50 [1] is on record?
**A.** > 90 µM

**Q.** What about the CC50 at 48 h [1] of the same compound?
**A.** > 90 µM

**Q.** And the EC50 [2]?
**A.** > 30 µM

**Q.** What about the activity at 100 µM [2] of the same compound?
**A.** 56%

**Q.** For `CC1(C)Cc2cccc(OCC(=O)Nc3nc(C(F)(F)F)cs3)c2O1` [Compound 21, 2-((2,2-dimethyl-2,3-dihydrobenzofuran-7-yl)oxy)-N-(4-(trifluoromethyl)thiazol-2-yl)acetamide], which CC50 at 48 h [1] is on record?
**A.** > 100 µM

**Q.** And the EC50 [2]?
**A.** 0.56 µM

**Q.** For `CC1(C)Cc2cccc(OCC(=O)Nc3ccc(C#N)cn3)c2O1` [Compound 22, N-(5-Cyanopyridin-2-yl)-2-((2,2-dimethyl-2,3-dihydrobenzofuran-7-yl)oxy) acetamide], which CC50 at 48 h [1] is on record?
**A.** > 100 µM

**Q.** And the EC50 [2]?
**A.** 25 µM

**Q.** For `CC1(C)Cc2cccc(OCC(=O)Nc3nc(C(C)(C)C)cs3)c2O1` [Compound 23, N-(4-(tert-Butyl)thiazol-2-yl)-2-((2,2-dimethyl-2,3-dihydrobenzofuran-7-yl)oxy)acetamide], which CC50 at 48 h [1] is on record?
**A.** > 100 µM

**Q.** What about the EC50 [2] of the same compound?
**A.** 4.4 µM

**Q.** For `CC1(C)Cc2cccc(OCC(=O)Nc3ccc(Cl)nn3)c2O1` [Compound 24, N-(6-Chloropyridazin-3-yl)-2-((2,2-dimethyl-2,3-dihydrobenzofuran-7-yl)oxy)acetamide], which CC50 at 48 h [1] is on record?
**A.** > 100 µM

**Q.** And the EC50 [2]?
**A.** 4.5 µM

**Q.** Which CC50 at 48 h [1] does the source give for `CC1(C)Cc2cccc(OCC(=O)Nc3ccc(Br)nn3)c2O1` [Compound 25, N-(6-Bromopyridazin-3-yl)-2-((2,2-dimethyl-2,3-dihydrobenzofuran-7-yl)oxy)acetamide] here?
**A.** > 100 µM

**Q.** And the EC50 [2]?
**A.** 3.6 µM

**Q.** What does the source list for `COc1ccc(NC(=O)COc2cccc3c2OC(C)(C)C3)nn1` [Compound 26, 2-((2,2-Dimethyl-2,3-dihydrobenzofuran-7-yl)oxy)-N-(6-methoxypyridazin-3-yl)acetamide]?
**A.** CC50 [1]: > 100 µM; CC50 at 48 h [1]: > 100 µM; EC50 [2]: > 25 µM; activity at 100 µM [2]: 53%

**Q.** Which results are given for `CC1(C)Cc2cccc(OCC(=O)Nc3nccc(C(F)(F)F)n3)c2O1` [Compound 28, 2-((2,2-Dimethyl-2,3-dihydrobenzofuran-7-yl)oxy)-N-(4-(trifluoromethyl)pyrimidin-2-yl)acetamide]?
**A.** CC50 [1]: > 100 µM; CC50 at 48 h [1]: > 100 µM; EC50 [2]: > 25 µM; activity at 100 µM [2]: 80%

**Q.** With `Cc1nccc(NC(=O)COc2cccc3c2OC(C)(C)C3)n1` [Compound 29, 2-((2,2-Dimethyl-2,3-dihydrobenzofuran-7-yl)oxy)-N-(2-methylpyrimidin-4-yl)acetamide] as the compound, how does the CC50 [1] read?
**A.** > 100 µM

**Q.** What about the CC50 at 48 h [1] of the same compound?
**A.** > 100 µM

**Q.** What about the EC50 [2] of the same compound?
**A.** > 25 µM

**Q.** What about the activity at 100 µM [2] of the same compound?
**A.** 65%

**Q.** With `CC1(C)Cc2cccc(OCC(=O)Nc3cccc(Br)n3)c2O1` [Compound 30, N-(6-Bromopyridin-2-yl)-2-((2,2-dimethyl-2,3-dihydrobenzofuran-7-yl)oxy)acetamide] as the compound, how does the CC50 at 48 h [1] read?
**A.** > 125 µM

**Q.** And the EC50 [2]?
**A.** 20 µM

**Q.** Which results are given for `Cc1nc(N(Cc2ccccc2)C(=O)COc2cccc3c2OC(C)(C)C3)sc1C` [Compound 31, N-Benzyl-2-((2,2-dimethyl-2,3-dihydrobenzofuran-7-yl)oxy)-N-(4,5-dimethylthiazol-2-yl)acetamide]?
**A.** CC50 at 48 h [1]: > 100 µM; EC50 [2]: 0.21 µM

**Q.** Which CC50 at 48 h [1] does the source give for `CC1(C)Cc2cccc(OCC(=O)N(Cc3ccccc3)c3nc4c(F)cccc4s3)c2O1` [Compound 32, N-Benzyl-2-((2,2-dimethyl-2,3-dihydrobenzofuran-7-yl)oxy)-N-(4-fluorobenzo[d]thiazol-2-yl)acetamide] here?
**A.** > 100 µM

**Q.** And the EC50 [2]?
**A.** 0.009 µM

**Q.** Which results are given for `Cc1csc(N(Cc2ccccn2)C(=O)COc2cccc3c2OC(C)(C)C3)n1` [Compound 33, 2-((2,2-Dimethyl-2,3-dihydrobenzofuran-7-yl)oxy)-N-(4-methylthiazol-2-yl)-N-(pyridin-2-ylmethyl)acetamide]?
**A.** CC50 at 48 h [1]: > 100 µM; EC50 [2]: 0.18 µM

**Q.** For `Cc1csc(N(Cc2cccnc2)C(=O)COc2cccc3c2OC(C)(C)C3)n1` [Compound 34, 2-((2,2-Dimethyl-2,3-dihydrobenzofuran-7-yl)oxy)-N-(4-methylthiazol-2-yl)-N-(pyridin-3-ylmethyl)acetamide], which CC50 at 48 h [1] is on record?
**A.** 12 µM

**Q.** What about the EC50 [2] of the same compound?
**A.** 1.4 µM

**Q.** For `Cc1csc(N(Cc2ccncc2)C(=O)COc2cccc3c2OC(C)(C)C3)n1` [Compound 35, 2-((2,2-Dimethyl-2,3-dihydrobenzofuran-7-yl)oxy)-N-(4-methylthiazol-2-yl)-N-(pyridin-4-ylmethyl)acetamide], which CC50 at 48 h [1] is on record?
**A.** > 100 µM

**Q.** And the EC50 [2]?
**A.** 1.42 µM
